Assay [1] concerns MCF7. Nature of the assay: Antiproliferative activity against human MCF7 cells after 72 hrs by MTT assay. It counts as functional, cell-based. Conditions: MCF7, 72 h.
The subject of another assay is MDA-MB-231. Nature of the assay: Antiproliferative activity against human MDA231 cells after 72 hrs by MTT assay. It counts as functional, cell-based. Conditions: MDA-MB-231, 72 h.
The next assay deals with MAP kinase p38 (Homo sapiens, UniProt O15264+Q15759+Q16539+P53778). Nature of the assay: Inhibition of p38alpha MAPK (unknown origin) using ATF-2 as substrate after 1 hr by ELISA. It counts as protein assay.
Assay [2] relates to MCF7. The experiment in a line: Cell cycle arrest in human MCF7 cells assessed as accumulation of cells at G1 phase after 48 hrs by propidium iodide staining-based flow cytometric analysis (reference value: 53.94%). It is filed as functional. On the technique in general: A flow cytometer gives signals particle by particle.
Assay [3] deals with MCF7. The experiment in a line: Cell cycle arrest in human MCF7 cells assessed as accumulation of cells at preG phase after 48 hrs by propidium iodide staining-based flow cytometric analysis (reference value: 1.71%). It is filed as functional.
Assay [4] has as its system MCF7. Nature of the assay: Induction of apoptosis in human MCF7 cells assessed as increase in caspase-7 mRNA expression after 48 hrs by RT-PCR analysis. It counts as functional, cell-based.
The subject of assay [5] is MCF7. The experiment in a line: Induction of apoptosis in human MCF7 cells assessed as necrotic cells after 48 hrs by Annexin V-FITC/propidium iodide staining-based flow cytometric analysis (reference value: 0.34%). It counts as functional.
Assay [6] relates to MCF7. The experiment in a line: Cell cycle arrest in human MCF7 cells assessed as accumulation of cells at G2/M phase after 48 hrs by propidium iodide staining-based flow cytometric analysis (reference value: 6.68%). It is filed as functional.
Assay [7] has as its system MCF7. The experiment in a line: Induction of apoptosis in human MCF7 cells assessed as increase in caspase-7 activity by ELISA. It counts as functional, cell-based. For orientation: An ELISA detects its analyte on a solid surface through an enzyme-linked reagent.
Assay [8] concerns MCF7. Nature of the assay: Induction of apoptosis in human MCF7 cells assessed as early apoptotic cells after 48 hrs by Annexin V-FITC/propidium iodide staining-based flow cytometric analysis (reference value: 0.85%). It is filed as functional.
For assay [9], the system named is MCF7. Nature of the assay: Induction of apoptosis in human MCF7 cells assessed as late apoptotic cells after 48 hrs by Annexin V-FITC/propidium iodide staining-based flow cytometric analysis (reference value: 0.52%). It counts as functional.
In assay [10] the test system is MCF7. The experiment in a line: Cell cycle arrest in human MCF7 cells assessed as accumulation of cells at S phase after 48 hrs by propidium iodide staining-based flow cytometric analysis (reference value: 39.38%). It counts as functional.

Calls of active or inactive are those of the source. The rule behind the calls is not given here. Where only a bound is given, the exact number is not on record here.

For the molecule `COc1c(C(=O)/C=C/c2ccc(C)o2)c(O)c(CN2CCN(C)CC2)c2occc12`, the IC50 (in general, the concentration needed to halve the response being measured) in the assay with MCF7 [1] was 4.86 µM; with MDA-MB-231 it was more than 100 µM.
Turning to `COc1c(-c2cc(-c3ccc(C)o3)[nH]c(=S)n2)c(O)c(Br)c2occc12`, the values for the IC50 with MCF7 [1] and with MDA-MB-231 were 1.51 µM and 2 µM, respectively.
For `COc1c(-c2cc(-c3ccc(C)o3)[nH]c(=S)n2)c(O)c(CN2CCCCC2)c2occc12`, in that order: more than 100 µM and more than 100 µM.
With `COc1c(C(=O)/C=C/c2ccc(C)o2)c(O)c(CN2CCCCC2)c2occc12`, the IC50 with MCF7 [1] and in the assay on MDA-MB-231 was more than 100 µM in each case.
With `Cc1cc(=O)c2c(OCc3nnc(S)o3)c3ccoc3cc2o1`, the IC50 with MCF7 [1] stood at 13.2 µM; in the assay with MDA-MB-231 it was 12.4 µM.
On to `COc1c(C(=O)/C=C/c2ccc(C)o2)c(O)c(Br)c2occc12`, for which the concentration for half-maximal inhibition (IC50) is 1.36 µM in the assay on MCF7 [1], 0.041 µM against MAP kinase p38 and 2.1 µM with MDA-MB-231.
In the case of `COc1c(-c2cc(-c3ccc(C)o3)c(C#N)c(N)n2)c(O)c(Br)c2occc12`, the IC50 in the assay with MCF7 [1] was found to be 1.19 µM; at MAP kinase p38, 0.04 µM; with MDA-MB-231 it was 2.65 µM. The Activity worked out at 41.56% in the assay with MCF7 [2]; 16.69% in the assay on MCF7 [3]; 2.13% in the assay on MCF7 [5]; 23.63% in the assay on MCF7 [6]; 5.36% in the assay with MCF7 [8]; 9.2% in the assay with MCF7 [9]. Moreover, in the assay on MCF7 [10], the Activity was 34.81%. Further, the outcome with MCF7 [4] and in the assay with MCF7 [7] was Active.
For `Cc1cc(=O)c2c(OCc3nnc(S)s3)c3ccoc3cc2o1`, the IC50 in the assay with MCF7 [1] came out at 1.65 µM; in the assay on MDA-MB-231, 7.07 µM.
Consider `Cc1cc(=O)c2c(OCC(=O)NNC(=S)Nc3ccccc3)c3ccoc3cc2o1`, for which the IC50 in the assay on MCF7 [1] was 2.44 µM; in the assay with MDA-MB-231, more than 100 µM.
On to `Cc1cc(C)n(C(=O)COc2c3ccoc3cc3oc(C)cc(=O)c23)n1`, for which the half-inhibitory concentration (IC50) was 2.5 µM in the assay on MCF7 [1] and more than 100 µM with MDA-MB-231.
With `COc1c(-c2cc(-c3ccc(C)o3)[nH]c(=S)n2)c(O)c(CN2CCN(C)CC2)c2occc12`, the IC50 in the assay with MCF7 [1] is 5.81 µM; in the assay on MDA-MB-231, more than 100 µM.
Turning to `COc1c(-c2cc(-c3ccc(C)o3)[nH]c(=O)n2)c(O)c(Br)c2occc12`, the IC50 came to 1.94 µM in the assay with MCF7 [1] and 1.23 µM in the assay with MDA-MB-231.
In the case of `Cc1cc(=O)c2c(OCc3nnc(SCCN4CCOCC4)o3)c3ccoc3cc2o1`, the 50% inhibitory concentration (IC50) in the assay with MCF7 [1] turned out to be 3.82 µM; with MDA-MB-231, 8.74 µM.
With `CS(=O)(=O)CCNCc1ccc(-c2ccc3ncnc(Nc4ccc(OCc5cccc(F)c5)c(Cl)c4)c3c2)o1` [LAPATINIB], the IC50 in the assay with MCF7 [1] and in the assay with MDA-MB-231 was 4.69 µM each time.
For `COc1c(C(=O)/C=C/c2ccc(C)o2)c(O)c(CN2CCOCC2)c2occc12`, the concentration for half-maximal inhibition (IC50) with MCF7 [1] and in the assay with MDA-MB-231 was more than 100 µM in each case.
Take `COc1c(-c2cc(-c3ccc(C)o3)[nH]c(=S)n2)c(O)c(CN2CCOCC2)c2occc12`: the IC50 in the assay on MCF7 [1] is 7.14 µM; with MDA-MB-231, more than 100 µM.
Regarding `Cc1cc(=O)c2c(OCc3nnc(SCCN4CCOCC4)s3)c3ccoc3cc2o1`, the values for the IC50 in the assay with MCF7 [1] and with MDA-MB-231 were 2.78 µM and more than 100 µM, respectively.

The values above are taken from ChEMBL document CHEMBL4480419, “Design and molecular modeling of novel P38α MAPK inhibitors targeting breast cancer, synthesized from oxygen heterocyclic natural compounds” (Bioorg Med Chem, 2019).
